# Experimental data from patent US20230085307A1, “PYRIDAZINONE COMPOUND AND HERBICIDE” (NISSAN CHEMICAL CORPORATION, priority 2019, published 2023).
# Legend:
# oval-leafed pondweed [1] = assay: Test Example 1: herbicidal activity, application before weed generation under submerged conditions (Table 16, symbol C); type: in vivo, oval-leafed pondweed (Monochoria vaginalis); conditions: for Herbicidal effect on C: oval-leafed pondweed (grade 0-5): 320 g/ha applied herbicide; for Herbicidal effect, C: oval-leafed pondweed: amount of applied herbicide 320 g/ha
# Method in brief: (§1)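 Submerged Wagner pots (alluvial soil, 4 cm water) sown with weed seeds and planted with 2.5-leaf rice seedlings; emulsifiable concentrate diluted in water applied to water surface on sowing day. Held in greenhouse at 25-30 °C; injury scored 0-5 by herbicidal rate after three weeks.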
# late watergrass [2] = assay: Test Example 1: herbicidal activity, application before weed generation under submerged conditions (Table 16, symbol A); type: in vivo, late watergrass (Echinochloa oryzicola); conditions: for Herbicidal effect on A: late watergrass (grade 0-5): 320 g/ha applied herbicide; for Herbicidal effect, A: late watergrass: amount of applied herbicide 320 g/ha
# Method in brief: as §1
# barnyard grass [3] = assay: Test Example 3: herbicidal effect by foliage application, Wagner pot (Table 18, symbol H); type: in vivo, barnyard grass (Echinochloa crus-galli)
# Method in brief: (§2)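 Plants were sown in alluvial soil held under 0.1–0.5 cm standing water and grown 14 days in a greenhouse at 25–30 °C. An emulsifiable formulation, water-diluted to the set dose, was then sprayed onto the foliage, and effects were scored three weeks later using previously defined criteria.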
# Chinese sprangletop = assay: Test Example 3: herbicidal effect by foliage application, Wagner pot (Table 18, symbol D); type: in vivo, chinese sprangletop (Leptochloa chinensis)
# Method in brief: as §2
# late watergrass [4] = assay: Test Example 2: herbicidal activity, application during weed generation under submerged conditions (Table 17, symbol A); type: in vivo, late watergrass (Echinochloa oryzicola); conditions: for herbicidal effect rating, A: late watergrass: AAH 320 g/ha, application during weed generation, submerged conditions
# Method in brief: (§3)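 Wagner pot, alluvial soil, 4 cm flood; mixed sowing of all species; greenhouse 25° C.–30° C. Emulsifiable formulation, water-diluted to predetermined dose, applied to paddy water at 1–2 leaf stage. Effect rated at 3 wk using the earlier test's scoring criteria.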
# Japanese bulrush [5] = assay: Test Example 2: herbicidal activity, application during weed generation under submerged conditions (Table 17, symbol B); type: in vivo, Japanese bulrush (Schoenoplectus juncoides); conditions: for herbicidal effect rating, B: Japanese bulrush: AAH 320 g/ha, application during weed generation, submerged conditions
# Method in brief: as §3
# Japanese bulrush [6] = assay: Test Example 1: herbicidal activity, application before weed generation under submerged conditions (Table 16, symbol B); type: in vivo, Japanese bulrush (Schoenoplectus juncoides); conditions: for Herbicidal effect on B: Japanese bulrush (grade 0-5): 320 g/ha applied herbicide; for Herbicidal effect, B: Japanese bulrush: amount of applied herbicide 320 g/ha
# Method in brief: as §1
# oval-leafed pondweed [7] = assay: Test Example 2: herbicidal activity, application during weed generation under submerged conditions (Table 17, symbol C); type: in vivo, oval-leafed pondweed (Monochoria vaginalis); conditions: for herbicidal effect rating, C: oval-leafed pondweed: AAH 320 g/ha, application during weed generation, submerged conditions
# Method in brief: as §3
# rice flat sedge = assay: Test Example 3: herbicidal effect by foliage application, Wagner pot (Table 18, symbol E); type: in vivo, rice flat sedge (Cyperus iria)
# Method in brief: as §2
# wild oat = assay: Test Example 5: herbicidal effect by foliage application, plastic box (Table 20, symbol I); type: in vivo, wild oat (Avena fatua); conditions: foliage application, 320 g/ha, three weeks after application
# Method in brief: (§4)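 Plants were sown into sterilized diluvial soil under about 1.5 cm cover and kept in a greenhouse at 25° C. to 30° C. Fourteen days on, foliage received an even spray of the diluted emulsion. Herbicidal or crop effect was judged three weeks afterwards.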
# lambsquarters = assay: Test Example 5: herbicidal effect by foliage application, plastic box (Table 20, symbol O); type: in vivo, lambsquarters (Chenopodium album); conditions: foliage application, 320 g/ha, three weeks after application
# Method in brief: as §4
# barnyard grass [8] = assay: Test Example 5: herbicidal effect by foliage application, plastic box (Table 20, symbol H); type: in vivo, barnyard grass (Echinochloa crus-galli); conditions: foliage application, 320 g/ha, three weeks after application
# Method in brief: as §4
# green foxtail = assay: Test Example 5: herbicidal effect by foliage application, plastic box (Table 20, symbol G); type: in vivo, green foxtail (Setaria viridis); conditions: foliage application, 320 g/ha, three weeks after application
# Method in brief: as §4
# blackgrass = assay: Test Example 5: herbicidal effect by foliage application, plastic box (Table 20, symbol J); type: in vivo, blackgrass (Alopecurus myosuroides); conditions: foliage application, 320 g/ha, three weeks after application
# Method in brief: as §4
# velvetleaf = assay: Test Example 5: herbicidal effect by foliage application, plastic box (Table 20, symbol M); type: in vivo, velvetleaf (Abutilon theophrasti); conditions: foliage application, 320 g/ha, three weeks after application
# Method in brief: as §4
# southern crabgrass = assay: Test Example 5: herbicidal effect by foliage application, plastic box (Table 20, symbol F); type: in vivo, southern crabgrass (Digitaria ciliaris); conditions: foliage application, 320 g/ha, three weeks after application
# Method in brief: as §4
# persian speedwell = assay: Test Example 5: herbicidal effect by foliage application, plastic box (Table 20, symbol R); type: in vivo, Persian speedwell (Veronica persica); conditions: foliage application, 320 g/ha, three weeks after application
# Method in brief: as §4
# windgrass = assay: Test Example 5: herbicidal effect by foliage application, plastic box (Table 20, symbol L); type: in vivo, windgrass (Apera spica-venti); conditions: foliage application, 320 g/ha, three weeks after application
# Method in brief: as §4
# Italian ryegrass = assay: Test Example 5: herbicidal effect by foliage application, plastic box (Table 20, symbol K); type: in vivo, Italian ryegrass (Lolium multiflorum); conditions: foliage application, 320 g/ha, three weeks after application
# Method in brief: as §4
# [9] = amount of applied herbicide 320 g/ha
# [10] = application during weed generation under submerged conditions, amount of applied herbicide 320 g/ha
SMILES,Herbicidal effect on C: oval-leafed pondweed (grade 0-5) (oval-leafed pondweed [1]),Herbicidal effect on A: late watergrass (grade 0-5) (late watergrass [2]),"herbicidal effect rating, A: late watergrass (late watergrass [4])","herbicidal effect rating, B: Japanese bulrush (Japanese bulrush [5])",Herbicidal effect on B: Japanese bulrush (grade 0-5) (Japanese bulrush [6]),"herbicidal effect rating, C: oval-leafed pondweed (oval-leafed pondweed [7])",herbicidal effect on H: barnyard grass (barnyard grass [3]; [9]),herbicidal effect on D: Chinese sprangletop (Chinese sprangletop; [9]),herbicidal effect on E: rice flat sedge (rice flat sedge; [9]),also measured
CSCCCOc1ccc(-c2sc3ccccc3c2-c2c(O)c(C)nn(C)c2=O)cc1 [1-222],4 (Herbicidal rate of 70% or more and less than 90%),5 (Herbicidal rate of 90% or more (almost completely withered)),5 (Herbicidal rate of 90% or more (almost completely withered)),3 (Herbicidal rate of 40% or more and less than 70%),4 (Herbicidal rate of 70% or more and less than 90%),4 (Herbicidal rate of 70% or more and less than 90%),,,,"herbicidal effect on H (barnyard grass), rating 0-5 (barnyard grass [3]; 320 g/ha): 5 (Herbicidal rate of 90% or more (almost completely withered)); herbicidal effect on D (Chinese sprangletop), rating 0-5 (Chinese sprangletop; 320 g/ha): 5 (Herbicidal rate of 90% or more (almost completely withered)); herbicidal effect on E (rice flat sedge), rating 0-5 (rice flat sedge; 320 g/ha): 4 (Herbicidal rate of 70% or more and less than 90%)"
Cc1nn(C)c(=O)c(-c2c(-c3ccc(OCCOC(C)C)cc3)sc3ccccc23)c1O [1-226],4 (Herbicidal rate of 70% or more and less than 90%),5 (Herbicidal rate of 90% or more (almost completely withered)),5 (Herbicidal rate of 90% or more (almost completely withered)),3 (Herbicidal rate of 40% or more and less than 70%),4 (Herbicidal rate of 70% or more and less than 90%),3 (Herbicidal rate of 40% or more and less than 70%),,,,"herbicidal effect on H (barnyard grass), rating 0-5 (barnyard grass [3]; 320 g/ha): 5 (Herbicidal rate of 90% or more (almost completely withered)); herbicidal effect on D (Chinese sprangletop), rating 0-5 (Chinese sprangletop; 320 g/ha): 5 (Herbicidal rate of 90% or more (almost completely withered)); herbicidal effect on E (rice flat sedge), rating 0-5 (rice flat sedge; 320 g/ha): 4 (Herbicidal rate of 70% or more and less than 90%)"
Cc1nn(C)c(=O)c(-c2c(-c3ccc(CS(C)(=O)=O)cc3)sc3ccc(F)cc23)c1O [2-334],0 (Herbicidal rate of 5% or less (almost no effect)),3 (Herbicidal rate of 40% or more and less than 70%),3 (Herbicidal rate of 40% or more and less than 70%),0 (Herbicidal rate of 5% or less (almost no effect)),0 (Herbicidal rate of 5% or less (almost no effect)),0 (Herbicidal rate of 5% or less (almost no effect)),5 (Herbicidal rate of 90% or more (almost completely withered)),4 (Herbicidal rate of 70% or more and less than 90%),5 (Herbicidal rate of 90% or more (almost completely withered)),
CCCC(=O)Oc1c(C)nn(C)c(=O)c1-c1c(-c2ccc(C(F)(F)F)cc2Cl)sc2ccc(F)cc12 [2-357],0 (Herbicidal rate of 5% or less (almost no effect)),4 (Herbicidal rate of 70% or more and less than 90%),2 (Herbicidal rate of 20% or more and less than 40%),0 (Herbicidal rate of 5% or less (almost no effect)),2 (Herbicidal rate of 20% or more and less than 40%),0 (Herbicidal rate of 5% or less (almost no effect)),5 (Herbicidal rate of 90% or more (almost completely withered)),3 (Herbicidal rate of 40% or more and less than 70%),2 (Herbicidal rate of 20% or more and less than 40%),
COc1cc(OC)cc(-c2sc3ccc(F)cc3c2-c2c(O)c(C)nn(C)c2=O)c1 [2-360],0 (Herbicidal rate of 5% or less (almost no effect)),3 (Herbicidal rate of 40% or more and less than 70%),2 (Herbicidal rate of 20% or more and less than 40%),0 (Herbicidal rate of 5% or less (almost no effect)),2 (Herbicidal rate of 20% or more and less than 40%),0 (Herbicidal rate of 5% or less (almost no effect)),5 (Herbicidal rate of 90% or more (almost completely withered)),4 (Herbicidal rate of 70% or more and less than 90%),3 (Herbicidal rate of 40% or more and less than 70%),
CCCC(=O)Oc1c(C)nn(C)c(=O)c1-c1c(-c2ccc(OC)cc2)sc2cc(C)c(C)cc12 [5-093],,,2 (Herbicidal rate of 20% or more and less than 40%),0 (Herbicidal rate of 5% or less (almost no effect)),,0 (Herbicidal rate of 5% or less (almost no effect)),,,,"Herbicidal effect, C: oval-leafed pondweed (oval-leafed pondweed [1]): 0 (Herbicidal rate of 5% or less (almost no effect)); Herbicidal effect, A: late watergrass (late watergrass [2]): 2 (Herbicidal rate of 20% or more and less than 40%); herbicidal effect on barnyard grass (H) (barnyard grass [3]; 320 g/ha): 1 (Herbicidal rate of 5% or more and less than 20%); herbicidal effect on Chinese sprangletop (D) (Chinese sprangletop; 320 g/ha): 2 (Herbicidal rate of 20% or more and less than 40%); herbicidal effect on wild oat (I) (wild oat): 0 (Herbicidal rate of 5% or less (almost no effect)); herbicidal effect on lambsquarters (O) (lambsquarters): 3 (Herbicidal rate of 40% or more and less than 70%); herbicidal effect on barnyard grass (H) (barnyard grass [8]): 0 (Herbicidal rate of 5% or less (almost no effect)); Herbicidal effect, B: Japanese bulrush (Japanese bulrush [6]): 0 (Herbicidal rate of 5% or less (almost no effect)); herbicidal effect on green foxtail (G) (green foxtail): 0 (Herbicidal rate of 5% or less (almost no effect)); herbicidal effect on blackgrass (J) (blackgrass): 0 (Herbicidal rate of 5% or less (almost no effect)); herbicidal effect on velvetleaf (M) (velvetleaf): 1 (Herbicidal rate of 5% or more and less than 20%); herbicidal effect on southern crabgrass (F) (southern crabgrass): 0 (Herbicidal rate of 5% or less (almost no effect)); herbicidal effect on persian speedwell (R) (persian speedwell): 0 (Herbicidal rate of 5% or less (almost no effect)); herbicidal effect on rice flat sedge (E) (rice flat sedge; 320 g/ha): 2 (Herbicidal rate of 20% or more and less than 40%); herbicidal effect on windgrass (L) (windgrass): 0 (Herbicidal rate of 5% or less (almost no effect)); herbicidal effect on Italian ryegrass (K) (Italian ryegrass): 0 (Herbicidal rate of 5% or less (almost no effect))"
CCCC(=O)Oc1c(C)nn(C)c(=O)c1-c1c(-c2ccc(OCCOC)cc2)oc2ccc(C)cc12 [9-064],,,,,,,,,,"Herbicidal effect, C: oval-leafed pondweed (oval-leafed pondweed [1]): 5 (Herbicidal rate of 90% or more (almost completely withered)); Herbicidal effect, A: late watergrass (late watergrass [2]): 5 (Herbicidal rate of 90% or more (almost completely withered)); Herbicidal effect on H (barnyard grass), foliage application (barnyard grass [3]; [9]): 5 (Herbicidal rate of 90% or more (almost completely withered)); Herbicidal effect on D (Chinese sprangletop), foliage application (Chinese sprangletop; [9]): 1 (Herbicidal rate of 5% or more and less than 20%); herbicidal effect grade, A: late watergrass (late watergrass [4]; [10]): 4 (Herbicidal rate of 70% or more and less than 90%); herbicidal effect grade, B: Japanese bulrush (Japanese bulrush [5]; [10]): 3 (Herbicidal rate of 40% or more and less than 70%); Herbicidal effect, B: Japanese bulrush (Japanese bulrush [6]): 5 (Herbicidal rate of 90% or more (almost completely withered)); herbicidal effect grade, C: oval-leafed pondweed (oval-leafed pondweed [7]; [10]): 4 (Herbicidal rate of 70% or more and less than 90%); Herbicidal effect on E (rice flat sedge), foliage application (rice flat sedge; [9]): 5 (Herbicidal rate of 90% or more (almost completely withered))"
